Test system: GloResponse NFAT-luc2 Jurkat cells
Conditions: T2 loaded with 100 nM peptide, 18 hours
Procedure: T cell activation assays using GloResponse™ NFAT-luc2 Jurkat cells and peptide loaded T2 target cells were performed according to manufacturer instructions. In short, T2 cells were harvested from continuous cell culture, washed and resuspended in T2 culture medium at a concentration of 3.3×10^6 cells/ml and transferred to 96 well round bottom plates (Corning Costar®, Cat. Nr. 3799). Peptide in DMSO, 0.5% TFA was added to a final concentration of 100 nM and the suspension incubated for 2 to 3 hours at 37° C., 5% CO2. bsTCR formulated in PBS was diluted in T2 culture medium to desired concentration and 25 μl of the respective dilution was distributed to white 96 well flat bottom plates (Brand, Cat. Nr. 781965). […] After the incubation period 75 μl of Bio-Glo™ luciferase reagent was added to each well and the plates incubated for minutes at 300 rpm on a plate shaker in the dark before reading luminescence at a 0.5 second integration time with a Synergy2 plate reader (Biotek). Luminescence as measured in relative light units (RLU) was converted to fold induction for each well by dividing measured RLU through those of control wells.
T2 cells were loaded separately with respective peptides from the positional scanning library at a concentration of 100 nM and subsequently co-incubated with Jurkats and different bsTCR concentrations for 18 hours before readout.

For ALYNVLAKV, which “T cell activation (luminescence fold induction over background)” value is on record?
Its value is “reactive in the reporter assay”.
